Tested on: trigemino-vascular system
Experiment: Trigeminal nerve model in anaesthetised cats (TGN stimulation-induced reduction in carotid vascular resistance)
Format: in vivo, cat
Details: for % Change in TGN-reduction in carotid vascular resistance at 4 hours following continuous iv infusion (mean ± sem) / % Changes of TGW-induced reduction in carotid vascular resistance 3 hours (mean ± sem): anaesthetised cat
Protocol: Trigeminal nerve model in anaesthetised cats
Cats were anaesthetised with α-chloralose (90-110 mg/kg i.v.) and artificially respired with room air. Body temperature was maintained at 37-38 C. A femoral artery was cannulated for recording of blood pressure and heart rate. Arterial blood flow was recorded by a Doppler flow probe placed around the right common carotid artery. Bipolar stainless electrodes were stereotaxically placed into each trigeminal ganglion. Guanethidine (3 mg/kg i.v.) was then administered and 45 min allowed for stabilisation. […]

[1] = continuous iv infusion 3.4 μmol/h, at 4 hours
[2] = intraduodenal administration 10 mg.kg, after 3 hours
[3] = intravenous administration at 3.4 μmol/h, at 4 hours

CC(=O)c1ccc2c(c1)[C@H](NC(=O)c1ccc(F)cc1)[C@@H](O)C(C)(C)O2 (relative stereo) [Compound 1, trans-6-acetyl-4S-(4-fluorobenzoylamino)-3,4-dihydro-2,2-dimethyl-2H-1-benzopyran-3R-ol]
% Change in TGN-reduction in carotid vascular resistance at 4 hours following continuous iv infusion (mean ± sem) [1]: −29.1 ± 3.7 % | % Changes of TGW-induced reduction in carotid vascular resistance 3 hours (mean ± sem) (intraduodenal 10 mg/kg in labrasol): −43 ± 12.9 % | inhibition of TGN-induced reduction in carotid vascular resistance (in words) [2]: significant inhibition | inhibition of TGN-induced reduction in carotid vascular resistance (in words) [3]: significant inhibition

CC(=O)c1ccc2c(c1)[C@H](NC(=O)c1ccc(F)c(Cl)c1)[C@H](O)C(C)(C)O2 (relative stereo) [Compound 2, cis-6-acetyl-4S-(3-chloro-4-fluorobenzoylamino)-3,4-dihydro-2,2-dimethyl-2H-1-benzopyran-3S-ol]
% Change in TGN-reduction in carotid vascular resistance at 4 hours following continuous iv infusion (mean ± sem) [1]: −30.0 ± 6.6 % | % Change in TGN-reduction in carotid vascular resistance at 4 hours following continuous iv infusion (mean ± sem) (continuous iv infusion 11 μmol/h, at 4 hours): −21.8 ± 14 % | % Changes of TGW-induced reduction in carotid vascular resistance 3 hours (mean ± sem) (intraduodenal 10 mg/kg in methylcellulose): −69% | inhibition of TGN-induced reduction in carotid vascular resistance (in words) [2]: significant inhibition | inhibition of TGN-induced reduction in carotid vascular resistance (in words) [3]: significant inhibition

CC(=O)c1ccc2c(c1)[C@H](NC(=O)c1cc(F)cc(F)c1)[C@@H](O)C(C)(C)O2 (relative stereo) [Compound 3, trans-6-acetyl-4S-(3,5-difluorobenzoylamino)-3,4-dihydro-2,2-dimethyl-2H-1-benzopyran-3R-ol]
effects on TGN stimulation-induced reductions in carotid vascular resistance (in words) (guanethidine treated anaesthetised cat): marked effects | inhibition of trigeminal nerve mediated responses (guanethidine treated anaesthetised cat, intraduodenal bolus 10 mg/kg, 2 hours post administration, n=4): 77%
